From patent US10774084B2, “Adenine derivatives and their use as UV-photoprotective agents” (UNIVERZITA PALACKEHO V OLOMOUCI, priority 2015, dated 2020)

System: human dermal fibroblast (HDF)
Assay: Comparative gene expression analysis (mRNA sequencing)
Type: cell-based
Conditions: 5 μM, 24 h
Protocol: Comparative gene expression analysis in human dermal fibroblast (HDF) was performed to gain insight into role of compound 1 in the photoprotection against UV-induced damage. Three independent HDF lines form three patients were treated with 5 μM 1 for 24 h or mock-treated with DMSO. Alternatively, the above three biological samples (without 1) were irradiated with UV light (5 J/cm2). 1.5-3.0×10^6 cells from each treatment or control was used for isolation of total RNA using trizol. cDNA sequencing libraries were prepared with the Illumina TruSeq Stranded mRNA LT Sample Prep Kit (Illumina, San Diego, Calif.) according to standard Illumina's protocols and sequenced on HiSeq 2500 apparatus (50 bp single-end reads).
To reveal the molecular mechanism of the action of 1, we compared data from mock (DMSO)-treated HDF or UV-treated HDF with those obtained after 24 h treatment with 1. For data analysis, we performed ab initio method where sequencing reads were mapped to the reference genome. […] These included calcium-activated potassium channel KCNN4, calcium sensor DYSF or calcium-dependent phospholipid-binding protein CPNE7. […] Thus, 1 seems to protect cells against oxidative damage caused primarily by UV-light or other stress conditions.

[1] = 1-treated vs UV-treated group, P<0.05

c1nc(NCC2CCCO2)c2ncn(C3CCCO3)c2n1 (centres unmarked) [Compound 1, 6-(tetrahydrofuran-2-ylmethylamino)-9-(tetrahydrofuran-2-yl)purine]
number of differentially regulated genes [1]: 1306 genes
number of downregulated genes [1]: 441 genes
number of upregulated genes [1]: 865 genes
significantly regulated genes, control group vs samples treated with 1 (in words) (vs DMSO mock): did not show any significantly regulated genes
logFC ABCG1 (vs UV-treated group): −2.63
logFC AC002456.2 (vs UV-treated group): 1.58
logFC AC003986.6 (vs UV-treated group): −1.65
logFC ADAMTS9-AS2 (vs UV-treated group): −1.63
logFC ADGRG1 (vs UV-treated group): 1.52
logFC ANGPTL4 (vs UV-treated group): 1.73
logFC ANKRD33 (vs UV-treated group): 2.69
logFC APOL6 (vs UV-treated group): −1.51
logFC ARHGAP22 (vs UV-treated group): 1.66
logFC B4GALNT1 (vs UV-treated group): 1.55
logFC BHLHE22 (vs UV-treated group): −1.90
logFC BRINP2 (vs UV-treated group): −1.77
logFC BTC (vs UV-treated group): −1.84
logFC CCDC107 (vs UV-treated group): 1.50
logFC CCL8 (vs UV-treated group): −2.80
logFC CCL26 (vs UV-treated group): 1.75
logFC CD163 (vs UV-treated group): 1.67
logFC CFB (vs UV-treated group): −1.96
logFC CHRNA9 (vs UV-treated group): 2.21
logFC CITED4 (vs UV-treated group): 1.63
logFC CLNS1AP1 (vs UV-treated group): −1.80
logFC CPNE7 (vs UV-treated group): 1.61
logFC CTD-2587H24.5 (vs UV-treated group): 1.54
logFC CXCL9 (vs UV-treated group): −1.79
logFC CYP51A1 (vs UV-treated group): 1.65
logFC DHRS3 (vs UV-treated group): −1.60
logFC DYSF (vs UV-treated group): 1.73
logFC EBF2 (vs UV-treated group): 1.62
logFC FAM20A (vs UV-treated group): −1.86
logFC FAM81A (vs UV-treated group): 1.71
logFC FGD3 (vs UV-treated group): −1.93
logFC FOLR3 (vs UV-treated group): 1.68
logFC GBP2 (vs UV-treated group): −1.61
logFC GPR37L1 (vs UV-treated group): −1.66
logFC HAUS1P2 (vs UV-treated group): −1.54
logFC HCK (vs UV-treated group): −1.66
logFC HS3ST2 (vs UV-treated group): 2.50
logFC IFIT2 (vs UV-treated group): −1.77
logFC ITGA10 (vs UV-treated group): 1.77
logFC JAK3 (vs UV-treated group): −1.68
logFC KCNN4 (vs UV-treated group): 1.85
logFC KCNT2 (vs UV-treated group): −2.21
logFC KIF1A (vs UV-treated group): 3.05
logFC LINC00702 (vs UV-treated group): 1.60
logFC LINC00704 (vs UV-treated group): 1.69
logFC LINC01204 (vs UV-treated group): 1.64
logFC MET (vs UV-treated group): 1.63
logFC MOB3B (vs UV-treated group): −1.70
logFC MYEOV (vs UV-treated group): 1.98
logFC NRROS (vs UV-treated group): 1.74
logFC NUDT8 (vs UV-treated group): 1.56
logFC PPP2R2C (vs UV-treated group): 1.95
logFC PSAT1P3 (vs UV-treated group): −2.19
logFC RARRES3 (vs UV-treated group): −2.09
logFC RNF150 (vs UV-treated group): −1.80
logFC RORB (vs UV-treated group): −1.57
logFC RP1-181J22.1 (vs UV-treated group): −2.53
logFC RP11-21C4.1 (vs UV-treated group): −1.95
logFC RP11-54A9.1 (vs UV-treated group): 1.63
logFC RP11-184E9.1 (vs UV-treated group): 1.78
logFC RP11-363H12.1 (vs UV-treated group): −1.58
logFC RP11-367F23.2 (vs UV-treated group): 1.70
logFC RP11-379B8.1 (vs UV-treated group): −1.72
logFC RP11-383F6.1 (vs UV-treated group): −1.50
logFC RP11-400K9.4 (vs UV-treated group): −1.51
logFC RP11-541M12.6 (vs UV-treated group): 1.70
logFC RP11-1100L3.8 (vs UV-treated group): −1.70
logFC RPL34P31 (vs UV-treated group): −1.89
logFC SCG2 (vs UV-treated group): 2.00
logFC SERPINB9 (vs UV-treated group): −1.59
logFC SLC20A1 (vs UV-treated group): 1.56
logFC STX1A (vs UV-treated group): 1.55
logFC TGM2 (vs UV-treated group): 1.58
logFC TLR2 (vs UV-treated group): −1.63
logFC TM4SF1 (vs UV-treated group): 2.08
logFC TMEM154 (vs UV-treated group): 1.57
logFC TMEM178A (vs UV-treated group): −1.52
logFC TMEM233 (vs UV-treated group): 2.12
logFC TNFRSF9 (vs UV-treated group): −1.68
logFC TNFSF10 (vs UV-treated group): −2.14
logFC TNFSF13B (vs UV-treated group): −1.61
logFC TP63 (vs UV-treated group): −1.61
